Counter-ions that a name gives are not always drawn.
Tests used:
[1] = system: HeLa cells; test: Inhibition of proliferation of HeLa cells ([14C]-thymidine incorporation); assay type: cell-based; settings: Homo sapiens, incubation for 48 hours, read-out: Inhibition of cell proliferation IC50 HeLa
Description: The proliferation of HeLa cells is assessed by measuring the incorporation of [^14C]-thymidine in the following way. The HeLa cells (epithelial tumor cells of human origin) are cultured in a DMEM medium (Gibco) which contains 10% fetal calf serum and antibiotics (1% penicillin, 1% streptomycin). To carry out the proliferation test, the cells are inoculated into 96-well cytostar microplates (Amersham), at a rate of 5 000 cells per well. [^14C]-thymidine (0.1 μCi/well) and the products to be assessed are then added. Variable concentrations of products up to 10 μM are used; the DMSO (solvent used to dissolve the products) should not exceed 0.5% in the medium. After incubation for 48 hours at 37° C., the radioactivity incorporated into the cells is measured by counting the plate in a TRI-LUX counter (Wallac). The IC50 value is defined as the concentration of product which reduces the radioactivity by 50% relative to an untreated control. A product whose IC50 value is less than 1 μM is considered as cytotoxic.

[2] = system: HDMEC cells; test: Detachment effect on HDMEC endothelial cells; assay type: cell-based, Human; settings: 1 μM, treatment for two hours
Source text: A test to determine the detachment of endothelial cells was established in order to select the products on the basis of their “in vitro” activity. This test for determining the endothelial cell detachment is characterized in that the endothelial cells, inoculated in plates which are coated at the bottom with a binder, e.g., chosen from gelatin, fibronectin or vitronectin, after culturing, are supplemented with a medium containing the test compound, and the cells are then labeled with a fluorescent substance, the cells which become detached are removed by washing and the fluorescence of the remaining cells is counted in a fluorimeter.
This test consists in measuring the detachment of endothelial cells cultured on substrates based on a binder, e.g., chosen from fibronectin, vitronectin and gelatin. One day after inoculating the cells in plates containing 96 wells, for example, the culture medium is replaced with a medium containing the test compound in the absence of serum. The same preparation is prepared six times at three different concentrations ([…]) and the control without addition of antivascular product is prepared six times. After treatment for two hours with the test substance, the cells are labeled with calcein-AM (1.6 μg/ml) in a culture medium supplemented with 0.1% BSA. The cells which become detached are removed by washing with the culture medium containing 0.1% bovine serum albumin; 100 μl of medium are added to each well. The fluorescence of the remaining cells is counted in a fluorimeter. The data obtained are expressed relative to the control (untreated cells).
(§1) The assessment of the detachment of the endothelial cells in vitro is determined in the following way. HDMEC cells (Human Dermal Microvascular Endothelial Cells, Promocell, c-122102) are cultured in an ECGM-MV medium containing 5% fetal calf serum, growth factors (EGF 10 ng/ml, hydrocortisone 1 μg/ml, 0.4% growth supplement with heparin) and antibiotics (amphotericin 50 ng/ml, gentamicin 50 μg/ml). For the detachment test, the HDMECs are inoculated at a rate of 5 000 cells in clear-bottomed 96-well plates (Costar) precoated with fibronectin (10 μg/ml) or vitronectin (1 μg/ml) or gelatin. Twenty-four hours later, the culture medium is replaced with 0.1% BSA ECGM-MV medium containing the indicated products. The test concentrations are 0.1-0.3 and 1 μM for each product. After treatment for two hours, the cells are labeled for 1 hour with calcein (1.6 μg/ml, Molecular Probes) in 0.1% BSA ECGM-MV medium. The detached cells are then removed by washing with 0.1% BSA ECGM-MV medium; 100 μl of medium are added to each well. The fluorescence of the cells which remain attached to the substratum of the well is counted using a fluorimeter, Spectrafluor Plus (Tecan, excitation at 485 nm, and emission at 535 nm). The data are the average of six different samples and are expressed as a percentage of the control (untreated cells).
A cell detachment effect of greater than or equal to 15% is considered as significant.
as §1, with “(amphotericine” for “(amphotericin”, “The detached cells are then removed by washing with 0.1% BSA ECGM-MV medium; 100 μl of medium are added to each well. The fluorescence of the cells which remain attached to the substratum of the well is counted using a fluorimeter, Spectrafluor Plus (Tecan, excitation at 485 nm, and emission at 535 nm). The data are the average of six different samples and are expressed as a percentage of the control (untreated cells).” left out

[3] = target: T1, Tubulin (Sus scrofa, UniProt P02550+P02554); test: Assessment of the inhibition of tubulin polymerization (turbidimetry); assay type: biochemical, pig; settings: tubulin 10 μM, turbidity at 350 nm, 37° C.
T1 construct: Tubulin is purified from pig brains according to the published methods; from tissue; host or cells: pig brain
Description: Tubulin is purified from pig brains according to the published methods (Shelanski et al., 1973, Proc. Natl, Acad. Sci. USA, 70, 765-768. Weingarten et al., 1975, Proc. Natl, Acad. Sci. USA, 72, 1858-1862). Briefly, the brains are ground and centrifuged in an extraction buffer. The tubulin, contained in the extract supernatant, is subjected to two successive cycles of polymerization at 37° C. and depolymerization at 4° C., before being separated from the MAPs (Microtubule Associated Proteins) by chromatography on a phosphocellulose P11 column (Whatman). The tubulin thus isolated is more than 95% pure. It is stored in a buffer known as RB/2 30% glycerol, the composition of which is MES-NaOH [2-(N-morpholino)ethanesulfonic acid] 50 mM, pH 6.8; MgCl2 0.25 mM; EGTA 0.5 mM; 30% glycerol (v/v), GTP (guanosine 5′-triphosphate) 0.2 mM.
The polymerization of the tubulin into microtubules is monitored by turbidimetry as follows; the tubulin is adjusted to a concentration of 10 μM (1 mg/ml) in the RB/2 30% glycerol buffer, to which is added 1 mM GTP and 6 mM MgCl2. The polymerization is initiated by increasing the temperature from 6° C. to 37° C. in a cuvette with a 1 cm optical pathlength, placed in a Uvikon 931 spectrophotometer (Kontron) equipped with a thermostatically-regulated cuvette holder. The increase in the turbidity of the solution is monitored at 350 nm.
The products are dissolved at 10 mM in DMSO and added at variable concentrations (0.5 to 10 μM) to the tubulin solution before polymerization. The IC50 value is defined as the concentration of product which inhibits 50% of the rate of polymerization. A product whose IC50 value is less than or equal to 3 μM is considered as very active.

T1 sequence (P02550 whole entry): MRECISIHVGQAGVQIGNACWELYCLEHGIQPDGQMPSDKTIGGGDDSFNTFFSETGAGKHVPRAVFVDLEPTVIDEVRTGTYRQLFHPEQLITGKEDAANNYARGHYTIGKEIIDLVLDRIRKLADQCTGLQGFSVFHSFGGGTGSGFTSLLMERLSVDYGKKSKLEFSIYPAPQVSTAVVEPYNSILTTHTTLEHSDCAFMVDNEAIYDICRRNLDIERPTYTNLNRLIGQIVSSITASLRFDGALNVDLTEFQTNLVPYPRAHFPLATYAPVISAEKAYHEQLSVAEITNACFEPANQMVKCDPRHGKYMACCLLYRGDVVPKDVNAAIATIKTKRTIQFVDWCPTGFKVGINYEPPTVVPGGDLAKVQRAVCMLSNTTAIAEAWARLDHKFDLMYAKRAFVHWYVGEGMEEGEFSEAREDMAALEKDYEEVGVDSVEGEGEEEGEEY
T1 sequence (P02554 whole entry): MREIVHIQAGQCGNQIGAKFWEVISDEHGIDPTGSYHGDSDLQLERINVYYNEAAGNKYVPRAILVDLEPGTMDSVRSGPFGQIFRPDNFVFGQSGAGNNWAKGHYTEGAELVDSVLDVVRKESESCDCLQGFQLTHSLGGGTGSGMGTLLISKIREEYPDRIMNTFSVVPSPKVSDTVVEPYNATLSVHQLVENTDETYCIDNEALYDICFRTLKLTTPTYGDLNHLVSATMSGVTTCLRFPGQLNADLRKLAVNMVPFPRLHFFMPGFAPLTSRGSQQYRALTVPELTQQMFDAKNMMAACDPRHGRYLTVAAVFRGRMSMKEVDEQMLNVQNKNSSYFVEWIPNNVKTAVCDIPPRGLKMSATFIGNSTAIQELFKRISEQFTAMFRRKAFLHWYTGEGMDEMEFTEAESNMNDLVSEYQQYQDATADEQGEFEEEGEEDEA

IC50 [1] [nM] | IC50 [3] [nM] | SMILES | Percentage of detachment of HDMEC cells induced with the compound at a concentration of 1 μM [2] [%]
100 | 10000 | COc1ccc(/C=C(\C)C(=O)c2cc(OC)c(OC)c(OC)c2)cc1NC(=O)[C@@H](N)CO [Example 13, (S)-2-Amino-3-hydroxypropanoic acid {2-methoxy-5-[2-methyl-3-oxo-3-(3,4,5-trimethoxyphenyl)propenyl]phenyl}amide hydrochloride] | 31
5 to 10 | 700 | COc1cc(C(=O)/C(C)=C/c2ccc3c(ccn3C)c2)cc(OC)c1OC [Example 5, E-2-Methyl-3-(1-methyl-1-H-indol-5-yl)-1-(3,4,5-trimethoxyphenyl)propenone] | 32

— patent US20030153611A1, “1,3-Diarylprop-2-en-1-ones, compositions containing them and use thereof” (AVENTIS PHARMA S.A., priority 2001, published 2003)
